Data from patent publication US7601716B2, “Pyridopyrazines and derivatives thereof as ALK and c-Met inhibitors” (Cephalon, Inc., priority 2006, dated 2009).

Key:
[1] = biological target: T1, c-Met (cytoplasmic domain) (Homo sapiens, UniProt P08581); assay: c-Met Kinase Assay (ELISA/TRF, PLC-γ substrate); type: biochemical; conditions: 3 μM ATP (Km level); read-out: c-Met Kinase Inhibition (IC50)
T1 construct: Reactions were initiated with 30 ng/mL c-Met (cytoplasmic domain, Invitrogen Corporation #PV3143); purchased Invitrogen Corporation PV3143
Procedure: Example compounds were tested for their ability to inhibit the kinase activity of baculovirus-expressed ALK using a modification of the ELISA protocol reported for trkA in Angeles, T. S. et al., Anal. Biochem. 1996, 236, 49-55, which is incorporated herein by reference in its entirety. Phosphorylation of the substrate, phospholipase C-gamma (PLC-γ) generated as a fusion protein with glutathione S-transferase (GST) as reported in Rotin, D. et al., EMBO J. 1992, 11, 559-567, which is incorporated herein by reference in its entirety, was detected with a europium-labeled anti-phosphotyrosine antibody and measured by time-resolved fluorescence (TRF). Briefly, each 96-well plate was coated with 100 μL/well of 10 μg/mL substrate (phospholipase C-γ) in Tris-buffered saline (TBS). […] The reaction was initiated by adding enzyme (30 ng/ml ALK) and was allowed to proceed at 37° C. for 15 minutes. Detection of the phosphorylated product was performed by adding 100 μl/well of Eu-N1 labeled PT66 antibody (Perkin Elmer # AD0041). Incubation at 37° C. then proceeded for one (1) hour, followed by addition of 100 μL enhancement solution (Wallac #1244-105). The plate was gently agitated and after thirty minutes, the fluorescence of the resulting solution was measured using the EnVision 2100 (or 2102) multilabel plate reader (Perkin Elmer).
Data analysis was performed using ActivityBase (IDBS, Guilford, UK). IC50 values were calculated by plotting percent inhibition versus log10 of the concentration of compound and fitting to the nonlinear regression sigmoidal dose-response (variable slope) equation in XLFit (IDBS, Guilford, UK).
Reactions were initiated with 30 ng/mL c-Met (cytoplasmic domain, Invitrogen Corporation #PV3143).

[2] = biological target: baculovirus-expressed ALK (Homo sapiens, UniProt Q9UM73); assay: ALK Kinase Assay (ELISA/TRF, PLC-γ substrate); type: biochemical; conditions: read-out: ALK Kinase Inhibition (IC50); also: 1 µM ATP (Km level)
Procedure, shortened: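 An ELISA adapted from a trkA format was used: wells carried GST-fused PLC-γ substrate, and enzyme addition (30 ng/ml ALK) started a 15-minute reaction at 37° C.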

T1 sequence (P08581 956-1390 limits assumed): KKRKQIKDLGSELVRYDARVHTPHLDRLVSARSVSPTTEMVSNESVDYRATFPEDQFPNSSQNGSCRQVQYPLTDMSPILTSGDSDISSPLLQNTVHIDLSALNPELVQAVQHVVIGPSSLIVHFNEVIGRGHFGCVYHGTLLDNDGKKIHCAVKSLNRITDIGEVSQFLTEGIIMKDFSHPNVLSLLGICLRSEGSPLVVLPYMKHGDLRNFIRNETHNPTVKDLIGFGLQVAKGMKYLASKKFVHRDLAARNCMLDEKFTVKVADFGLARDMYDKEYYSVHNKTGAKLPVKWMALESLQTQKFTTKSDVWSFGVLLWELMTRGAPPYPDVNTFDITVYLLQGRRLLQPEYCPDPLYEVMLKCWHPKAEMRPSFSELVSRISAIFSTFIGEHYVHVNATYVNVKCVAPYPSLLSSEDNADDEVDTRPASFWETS
Sequence of baculovirus-expressed ALK (Q9UM73 19-1620): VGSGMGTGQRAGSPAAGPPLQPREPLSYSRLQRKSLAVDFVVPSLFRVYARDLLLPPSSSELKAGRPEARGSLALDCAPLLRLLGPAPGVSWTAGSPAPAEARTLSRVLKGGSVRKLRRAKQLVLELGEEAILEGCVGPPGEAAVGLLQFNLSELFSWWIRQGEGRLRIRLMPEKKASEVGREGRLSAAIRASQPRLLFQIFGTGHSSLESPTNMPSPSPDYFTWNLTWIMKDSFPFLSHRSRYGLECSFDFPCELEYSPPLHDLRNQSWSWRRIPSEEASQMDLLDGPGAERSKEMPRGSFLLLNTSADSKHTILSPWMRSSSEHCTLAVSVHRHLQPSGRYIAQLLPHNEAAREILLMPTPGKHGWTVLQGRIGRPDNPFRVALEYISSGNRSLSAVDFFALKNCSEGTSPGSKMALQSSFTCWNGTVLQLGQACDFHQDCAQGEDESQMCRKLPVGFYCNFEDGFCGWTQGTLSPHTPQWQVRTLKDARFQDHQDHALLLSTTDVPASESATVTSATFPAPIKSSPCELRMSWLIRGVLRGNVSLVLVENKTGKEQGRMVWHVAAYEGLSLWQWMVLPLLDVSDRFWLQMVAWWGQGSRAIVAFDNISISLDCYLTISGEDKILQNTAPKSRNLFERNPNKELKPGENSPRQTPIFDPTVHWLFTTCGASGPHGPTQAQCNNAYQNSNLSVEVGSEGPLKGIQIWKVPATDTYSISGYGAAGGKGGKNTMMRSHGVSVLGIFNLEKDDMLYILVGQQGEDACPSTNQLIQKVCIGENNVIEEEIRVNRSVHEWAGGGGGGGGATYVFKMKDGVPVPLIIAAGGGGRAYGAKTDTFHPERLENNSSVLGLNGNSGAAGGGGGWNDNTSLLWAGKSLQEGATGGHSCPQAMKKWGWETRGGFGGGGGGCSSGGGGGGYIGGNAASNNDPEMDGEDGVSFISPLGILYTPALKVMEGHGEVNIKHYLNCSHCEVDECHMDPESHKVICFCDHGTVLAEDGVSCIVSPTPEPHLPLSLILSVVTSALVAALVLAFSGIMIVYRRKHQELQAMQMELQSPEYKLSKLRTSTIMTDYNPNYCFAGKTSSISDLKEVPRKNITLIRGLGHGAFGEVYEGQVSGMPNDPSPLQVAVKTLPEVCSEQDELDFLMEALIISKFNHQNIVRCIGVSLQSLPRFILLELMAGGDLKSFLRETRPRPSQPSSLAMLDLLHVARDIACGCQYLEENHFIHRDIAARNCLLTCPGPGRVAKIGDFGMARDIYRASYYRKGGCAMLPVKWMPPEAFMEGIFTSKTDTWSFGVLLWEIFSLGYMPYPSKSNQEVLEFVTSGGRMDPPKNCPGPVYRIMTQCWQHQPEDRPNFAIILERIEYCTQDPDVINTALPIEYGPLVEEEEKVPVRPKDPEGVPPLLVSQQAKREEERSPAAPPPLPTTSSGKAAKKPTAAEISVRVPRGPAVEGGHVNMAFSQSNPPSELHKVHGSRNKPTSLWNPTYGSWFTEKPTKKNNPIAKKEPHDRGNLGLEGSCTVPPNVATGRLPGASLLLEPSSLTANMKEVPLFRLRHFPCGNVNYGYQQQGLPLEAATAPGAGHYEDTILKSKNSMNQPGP

With `O=C(c1ccc(-c2cnc3c(c2)N(C(=O)Cc2cc(F)ccc2F)CCN3)cc1)N1CCC(N2CCCC2)CC1` [Example 114, 2-(2,5-Difluorophenyl)-1-{7-[4-(4-(pyrrolidin-1-yl)piperidine-1-carbonyl)phenyl]-3,4-dihydro-2H-pyrido[2,3-b]pyrazin-1-yl}ethanone] the IC50 [1] was 10000 to 100000 nM and the IC50 [2] was 1000 to 10000 nM.

`FC(F)(F)c1ccc(Cl)cc1CN1CCNc2ncc(-c3cc[nH]c3)cc21` [Example 202, 1-[5-Chloro-2-(trifluoromethyl)benzyl]-7-(1H-pyrrol-3-yl)-1,2,3,4-tetrahydro-pyrido[2,3-b]pyrazine] gave an IC50 [1] of 10000 to 100000 nM and an IC50 [2] of 100 to 1000 nM.

For `c1ccc(CN2CCNc3ncccc32)cc1` [Example 32, 1-Benzyl-1,2,3,4-tetrahydropyrido[2,3-b]pyrazine], the IC50 [1] was greater than 100000 nM and the IC50 [2] was greater than 100000 nM.

`NS(=O)(=O)c1ccc(CNC(=O)c2cnc3c(c2)N(Cc2cc(Cl)ccc2Cl)CCN3)cc1` [Example 263, 1-(2,5-Dichlorobenzyl)-1,2,3,4-tetrahydropyrido[2,3-b]pyrazine-7-carboxylic acid 4-sulfamoyl-benzylamide] gave an IC50 [1] greater than 100000 nM and an IC50 [2] of 1000 to 10000 nM.

Compound `O=C(c1ccc(-c2cnc3c(c2)N(Cc2cc(F)c(F)cc2F)CCN3)cc1)N1CCC[C@H]1CN1CCCC1` [Example 84, ((S)-2-((pyrrolidin-1-yl)methyl)pyrrolidin-1-yl)-{4-[1-(2,4,5-trifluorobenzyl)-1,2,3,4-tetrahydropyrido[2,3-b]pyrazin-7-yl]phenyl}-methanone] has an IC50 [1] of 1000 to 10000 nM and an IC50 [2] of 100 to 1000 nM.

`CC(c1cc(F)c(F)cc1F)N1CCNc2ncc(I)cc21` (stereo not drawn) [Example 147, 7-Iodo-1-[1-(2,4,5-trifluorophenyl)ethyl]-1,2,3,4-tetrahydropyrido[2,3-b]pyrazine] gave an IC50 [1] greater than 100000 nM and an IC50 [2] of 10000 to 100000 nM.

`CN1CCN(C(=O)c2ccc(-c3cnc4c(c3)C(Oc3cc(Cl)ccc3Cl)CCN4)cc2)CC1` (stereo not drawn) [Example 272, {4-[5-(2,5-Dichlorophenoxy)-5,6,7,8-tetrahydro-[1,8]naphthyridin-3-yl]phenyl}-(4-methyl-piperazin-1-yl)methanone] showed an IC50 [1] of 1000 to 10000 nM and an IC50 [2] of 100 to 1000 nM.

`O=C1CNc2ncc(-c3ccc(NS(=O)(=O)CCN4CCC[C@H]4CN4CCCC4)cc3)cc2N1Cc1cc(F)ccc1F` [Example 49] showed an IC50 [1] of 10000 to 100000 nM and an IC50 [2] of 100 to 1000 nM.

For `O=C(NC1CCc2ccccc21)c1ccc(-c2cnc3c(c2)N(Cc2cc(Cl)ccc2C(F)(F)F)CCN3)cc1` (stereo not drawn) [Example 410, 4-{1-[5-Chloro-2-(trifluoromethyl)benzyl]-1,2,3,4-tetrahydropyrido[2,3-b]pyrazin-7-yl}-N-indan-1-ylbenzamide], the IC50 [2] was 100 to 1000 nM.

`CCOC(=O)N1CCC(NC(=O)c2cccc(-c3cnc4c(c3)N(Cc3cc(Cl)ccc3C(F)(F)F)CCN4)c2)CC1` [Example 326, 4-(3-{1-[5-Chloro-2-(trifluoromethyl)benzyl]-1,2,3,4-tetrahydropyrido[2,3-b]pyrazin-7-yl}benzoylamino)piperidine-1-carboxylic acid ethyl ester] was tested, and the IC50 [2] was 100 to 1000 nM.

For `O=C(c1ccc(-c2cnc3c(c2)N(Cc2cc(Cl)ccc2C(F)(F)F)CCN3)cc1)N1CCN(CCc2ccccc2)CC1` [Example 424, (4-{1-[5-Chloro-2-(trifluoromethyl)benzyl]-1,2,3,4-tetrahydropyrido[2,3-b]pyrazin-7-yl}phenyl)-(4-phenethylpiperazin-1-yl)methanone], the IC50 [2] was 100 to 1000 nM.

Compound `O=C(c1ccc(-c2cnc3c(c2)N(Cc2cc(Cl)ccc2C(F)(F)F)CCN3)cc1)N1CCN(c2ccccc2C(F)(F)F)CC1` [Example 381, (4-{1-[5-Chloro-2-(trifluoromethyl)benzyl]-1,2,3,4-tetrahydropyrido[2,3-b]pyrazin-7-yl}phenyl)-{4-[2-(trifluoromethyl)phenyl]piperazin-1-yl}methanone] has an IC50 [2] of 100 to 1000 nM.

`O=C(NCCOc1ccccc1)c1ccc(-c2cnc3c(c2)N(Cc2cc(Cl)ccc2C(F)(F)F)CCN3)cc1` [Example 420, 4-{1-[5-Chloro-2-(trifluoromethyl)benzyl]-1,2,3,4-tetrahydropyrido[2,3-b]pyrazin-7-yl}-N-(2-phenoxyethyl)benzamide] gave an IC50 [2] of 100 to 1000 nM.
